Assay results as given in ChEMBL document CHEMBL1201862, “PubChem BioAssay data set” (2004).
Blank lines part the entries; values can stand above or below the molecule they belong to. Active and inactive are the calls of the source.

Experiments:
[1] = test system: Candida albicans; assay: single-agent growth inhibition of C. albicans, dose response, counter-screen for antifungal drug resistance project, C. albicans CaCi-2, dry powder (AID 488802); format: functional, organism-based
[2] = test system: NIH3T3; assay: cytotoxicity in NIH-3T3 fibroblasts, dose response, cytotoxicity control for antifungal drug resistance project, cell-based, Alamar Blue, fluconazole, dry powder (AID 488809); format: functional; settings: Mus musculus
[3] = molecular target: T1, Sentrin-specific protease 7 (Homo sapiens, UniProt Q9BQF6); assay: SENP7 protease inhibitors, SAR follow-up, biochemical, luminescence, set 2 (AID 588600); format: functional
T1 sequence (Q9BQF6 whole entry): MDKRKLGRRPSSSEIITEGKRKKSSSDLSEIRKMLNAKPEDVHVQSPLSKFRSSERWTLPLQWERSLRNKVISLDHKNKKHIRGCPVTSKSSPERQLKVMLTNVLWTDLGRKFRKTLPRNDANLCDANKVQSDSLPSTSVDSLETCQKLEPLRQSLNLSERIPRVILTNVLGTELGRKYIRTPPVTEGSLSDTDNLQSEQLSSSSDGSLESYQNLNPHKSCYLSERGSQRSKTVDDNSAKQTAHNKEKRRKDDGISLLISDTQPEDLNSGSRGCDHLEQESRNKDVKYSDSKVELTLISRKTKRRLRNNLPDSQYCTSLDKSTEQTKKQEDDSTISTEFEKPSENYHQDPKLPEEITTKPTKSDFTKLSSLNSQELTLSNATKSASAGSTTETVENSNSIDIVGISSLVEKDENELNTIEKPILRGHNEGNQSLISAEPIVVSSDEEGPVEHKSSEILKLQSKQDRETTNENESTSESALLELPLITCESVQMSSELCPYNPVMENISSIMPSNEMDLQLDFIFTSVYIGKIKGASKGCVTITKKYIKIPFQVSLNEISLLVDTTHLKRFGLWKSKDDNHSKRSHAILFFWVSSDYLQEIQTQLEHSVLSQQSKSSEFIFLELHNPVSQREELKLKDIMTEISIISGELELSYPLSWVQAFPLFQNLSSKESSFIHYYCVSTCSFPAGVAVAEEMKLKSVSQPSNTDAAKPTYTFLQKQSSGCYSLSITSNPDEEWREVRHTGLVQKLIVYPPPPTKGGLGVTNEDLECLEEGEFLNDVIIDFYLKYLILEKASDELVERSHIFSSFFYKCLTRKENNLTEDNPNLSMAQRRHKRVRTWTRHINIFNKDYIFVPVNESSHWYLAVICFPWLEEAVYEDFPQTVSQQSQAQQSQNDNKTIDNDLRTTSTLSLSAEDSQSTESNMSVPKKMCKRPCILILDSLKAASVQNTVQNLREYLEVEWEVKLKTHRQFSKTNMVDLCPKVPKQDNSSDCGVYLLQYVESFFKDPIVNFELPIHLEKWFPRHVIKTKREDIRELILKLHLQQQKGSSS

[4] = molecular target: T2, Sentrin-specific protease 8 (Homo sapiens, UniProt Q96LD8); assay: SENP8 protease inhibitors, SAR follow-up, biochemical, luminescence, set 2 (AID 588601); format: functional
T2 sequence (Q96LD8 whole entry): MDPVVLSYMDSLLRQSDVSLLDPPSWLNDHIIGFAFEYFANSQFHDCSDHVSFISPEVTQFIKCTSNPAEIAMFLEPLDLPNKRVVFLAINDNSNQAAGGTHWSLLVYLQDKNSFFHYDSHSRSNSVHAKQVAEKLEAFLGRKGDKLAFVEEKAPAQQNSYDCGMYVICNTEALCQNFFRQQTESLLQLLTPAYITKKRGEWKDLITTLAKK

[5] = molecular target: T2, Sentrin-specific protease 8; assay: SENP8 protease inhibitors, SAR follow-up, biochemical, luminescence (AID 504501); format: functional
[6] = molecular target: T3, Protein skinhead-1 (Caenorhabditis elegans, UniProt P34707); format: functional
T3 sequence (P34707 whole entry): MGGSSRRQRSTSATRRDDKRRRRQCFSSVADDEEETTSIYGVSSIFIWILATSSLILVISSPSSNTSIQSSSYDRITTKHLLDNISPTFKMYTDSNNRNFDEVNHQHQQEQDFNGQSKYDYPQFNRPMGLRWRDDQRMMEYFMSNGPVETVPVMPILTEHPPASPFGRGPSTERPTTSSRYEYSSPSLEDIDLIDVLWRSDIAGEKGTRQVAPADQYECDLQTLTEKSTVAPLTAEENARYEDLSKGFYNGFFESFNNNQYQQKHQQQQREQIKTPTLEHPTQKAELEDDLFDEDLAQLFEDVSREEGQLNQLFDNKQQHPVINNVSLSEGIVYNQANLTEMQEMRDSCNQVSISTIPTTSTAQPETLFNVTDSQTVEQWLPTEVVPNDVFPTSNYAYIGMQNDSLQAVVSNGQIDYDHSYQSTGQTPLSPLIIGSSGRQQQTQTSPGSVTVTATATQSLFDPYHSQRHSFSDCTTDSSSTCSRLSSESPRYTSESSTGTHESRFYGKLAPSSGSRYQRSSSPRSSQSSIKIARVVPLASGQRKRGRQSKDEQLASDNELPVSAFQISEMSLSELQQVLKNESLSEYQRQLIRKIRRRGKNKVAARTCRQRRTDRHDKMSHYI

[7] = molecular target: T4, Sentrin-specific protease 6 (Homo sapiens, UniProt Q9GZR1); assay: SENP6 protease inhibitors, SAR follow-up, biochemical, luminescence, set 2 (AID 588598); format: functional
T4 sequence (Q9GZR1 whole entry): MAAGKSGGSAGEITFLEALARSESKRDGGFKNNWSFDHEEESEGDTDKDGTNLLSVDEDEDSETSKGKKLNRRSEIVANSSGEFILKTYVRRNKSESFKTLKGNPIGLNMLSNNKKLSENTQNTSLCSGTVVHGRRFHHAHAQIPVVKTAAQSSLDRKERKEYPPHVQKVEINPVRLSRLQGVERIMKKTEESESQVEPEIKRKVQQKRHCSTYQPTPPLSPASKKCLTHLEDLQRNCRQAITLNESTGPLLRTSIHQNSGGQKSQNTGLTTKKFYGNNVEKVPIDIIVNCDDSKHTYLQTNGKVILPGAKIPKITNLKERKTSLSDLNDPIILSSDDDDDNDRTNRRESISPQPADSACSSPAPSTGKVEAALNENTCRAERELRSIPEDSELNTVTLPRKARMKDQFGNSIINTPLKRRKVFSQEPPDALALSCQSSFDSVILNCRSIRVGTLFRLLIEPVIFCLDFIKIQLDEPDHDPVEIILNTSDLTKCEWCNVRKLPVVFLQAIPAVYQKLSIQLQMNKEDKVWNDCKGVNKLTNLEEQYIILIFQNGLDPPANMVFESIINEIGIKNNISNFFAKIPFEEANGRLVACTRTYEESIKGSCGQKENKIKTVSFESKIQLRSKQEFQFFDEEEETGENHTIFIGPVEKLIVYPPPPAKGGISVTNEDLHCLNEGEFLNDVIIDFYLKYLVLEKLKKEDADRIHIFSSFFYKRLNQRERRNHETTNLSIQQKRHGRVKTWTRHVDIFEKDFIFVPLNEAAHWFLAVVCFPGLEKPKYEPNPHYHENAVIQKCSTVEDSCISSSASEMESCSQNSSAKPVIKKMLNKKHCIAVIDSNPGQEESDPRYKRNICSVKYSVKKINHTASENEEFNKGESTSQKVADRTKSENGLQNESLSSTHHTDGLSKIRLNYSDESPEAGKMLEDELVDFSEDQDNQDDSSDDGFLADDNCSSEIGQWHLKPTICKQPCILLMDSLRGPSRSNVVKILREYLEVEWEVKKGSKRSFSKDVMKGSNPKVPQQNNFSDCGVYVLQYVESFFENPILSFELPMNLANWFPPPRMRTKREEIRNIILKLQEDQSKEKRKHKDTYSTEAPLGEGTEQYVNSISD

[8] = molecular target: T5, Caspase-3 (Homo sapiens, UniProt P42574); assay: caspase-3 inhibitors as off-family protease, SAR follow-up, selectivity assay for SENP protease inhibitor project, biochemical, luminescence, set 2 (AID 588599); format: functional
T5 sequence (P42574 whole entry): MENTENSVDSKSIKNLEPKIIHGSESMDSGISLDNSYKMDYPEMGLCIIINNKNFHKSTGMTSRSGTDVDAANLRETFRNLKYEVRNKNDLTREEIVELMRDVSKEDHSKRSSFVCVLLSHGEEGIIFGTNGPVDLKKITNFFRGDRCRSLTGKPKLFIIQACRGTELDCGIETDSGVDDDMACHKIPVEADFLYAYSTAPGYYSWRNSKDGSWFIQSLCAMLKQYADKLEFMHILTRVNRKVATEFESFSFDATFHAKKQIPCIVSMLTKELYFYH

[9] = molecular target: T1, Sentrin-specific protease 7; assay: SENP7 protease inhibitors, SAR follow-up, biochemical, luminescence (AID 504497); format: functional
[10] = molecular target: T4, Sentrin-specific protease 6; assay: SAR Analysis of small molecule inhibitors of Sentrin-specific protease 6 (SENP6) using a Luminescent assay. [Related pubchem assays (depositor defined):AID2582, AID2599]; format: functional
[11] = molecular target: T5, Caspase-3; assay: SAR Analysis of small molecule inhibitors of Sentrin-specific proteases (SENPs) using a Caspase-3 Selectivity assay. [Related pubchem assays (depositor defined):AID2540, AID2599, AID434973, AID489001]; format: functional
[12] = molecular target: CAAX prenyl protease 2 (Saccharomyces cerevisiae S288c, UniProt Q03530); assay: yeast Rce1 CaaX protease inhibitors, dose response, biochemical, plate reader, dry powder retest (AID 588851)
[13] = molecular target: Cytochrome P450 2D6 (Homo sapiens, UniProt P10635);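 note: CYP2D6 member of a cytochrome P450 panel assay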
[14] = test system: CHO-K1; assay: (§1) Counterscreen for antagonists of the orexin 1 receptor (OX1R; HCRTR1): Homogeneous time resolved fluorescence (HTRF)-based cell-based dose response assay to identify antagonists of the parental CHO-K1 cell line. [Related pubchem assays (depositor defined):AID434989, AID435008, AID463079, AID485270, AID492963, AID492964, AID492965, AID493232, AID504699, AID504701]; format: functional; settings: Cricetulus griseus
[15] = molecular target: T6, Orexin/Hypocretin receptor type 1 (Homo sapiens, UniProt O43613); assay: Homogeneous Time Resolved Fluorescence (HTRF)-based cell-based high throughput dose response assay for antagonists of the orexin 1 receptor (OX1R; HCRTR1). [Related pubchem assays (depositor defined):AID434989, AID435008, AID463079, AID485270, AID492963, AID492964, AID492965, AID493232, AID504717, AID504718]; format: functional
[16] = molecular target: T6, Orexin/Hypocretin receptor type 1; assay: Fluorescence-based cell-based high throughput dose response assay for antagonists of the orexin 1 receptor (OX1R; HCRTR1). [Related pubchem assays (depositor defined):AID434989, AID435008, AID463079, AID485270, AID492963, AID492964, AID492965, AID493232, AID504717, AID504718]; format: functional
[17] = molecular target: T7, Orexin receptor type 2 (Homo sapiens, UniProt O43614); assay: Counterscreen assay for antagonists of the orexin 1 receptor (OX1R; HCRTR1): Fluorescence-based cell-based dose response assay for antagonists of the orexin 2 receptor (OX2R; HCRTR2), run by assay provider.; format: functional
[18] = as §1, with “Fluorescence-based” for “Homogeneous time resolved fluorescence (HTRF)-based”, “cell-based high throughput” for “cell-based”, “CHO” for “CHO-K1”; format: functional
[19] = molecular target: T7, Orexin receptor type 2; assay: Counterscreen assay for antagonists of the orexin 1 receptor (OX1R; HCRTR1): Homogeneous Time Resolved Fluorescence (HTRF)-based cell-based dose response assay for antagonists of the orexin 2 receptor (OX2R; HCRTR2), run by assay provider.; format: functional

T7 sequence (O43614 whole entry): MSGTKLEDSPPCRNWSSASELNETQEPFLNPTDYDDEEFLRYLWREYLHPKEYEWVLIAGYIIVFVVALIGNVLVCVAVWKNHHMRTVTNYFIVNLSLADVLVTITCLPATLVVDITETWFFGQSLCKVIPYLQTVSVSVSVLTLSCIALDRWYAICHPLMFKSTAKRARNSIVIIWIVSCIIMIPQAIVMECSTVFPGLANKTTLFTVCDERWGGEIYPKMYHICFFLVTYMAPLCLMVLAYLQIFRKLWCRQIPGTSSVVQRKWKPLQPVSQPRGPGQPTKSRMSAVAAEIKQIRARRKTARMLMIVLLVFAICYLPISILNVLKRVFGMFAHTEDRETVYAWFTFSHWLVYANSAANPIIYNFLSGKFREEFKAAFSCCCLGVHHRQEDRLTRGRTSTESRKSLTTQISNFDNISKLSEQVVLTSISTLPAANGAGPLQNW
T6 sequence (O43613 whole entry): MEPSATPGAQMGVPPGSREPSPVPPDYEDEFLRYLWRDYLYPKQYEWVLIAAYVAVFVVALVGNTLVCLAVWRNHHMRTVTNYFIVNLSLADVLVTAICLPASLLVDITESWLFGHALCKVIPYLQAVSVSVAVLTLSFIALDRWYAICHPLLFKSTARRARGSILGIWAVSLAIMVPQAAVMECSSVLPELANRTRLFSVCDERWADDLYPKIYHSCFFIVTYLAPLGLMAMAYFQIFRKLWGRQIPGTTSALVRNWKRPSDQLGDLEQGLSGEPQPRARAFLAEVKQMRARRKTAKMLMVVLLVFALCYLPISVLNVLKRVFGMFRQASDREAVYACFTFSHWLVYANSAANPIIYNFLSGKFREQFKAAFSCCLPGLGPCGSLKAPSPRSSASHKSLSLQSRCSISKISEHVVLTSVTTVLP
Sequence of Cytochrome P450 2D6 (P10635 whole entry): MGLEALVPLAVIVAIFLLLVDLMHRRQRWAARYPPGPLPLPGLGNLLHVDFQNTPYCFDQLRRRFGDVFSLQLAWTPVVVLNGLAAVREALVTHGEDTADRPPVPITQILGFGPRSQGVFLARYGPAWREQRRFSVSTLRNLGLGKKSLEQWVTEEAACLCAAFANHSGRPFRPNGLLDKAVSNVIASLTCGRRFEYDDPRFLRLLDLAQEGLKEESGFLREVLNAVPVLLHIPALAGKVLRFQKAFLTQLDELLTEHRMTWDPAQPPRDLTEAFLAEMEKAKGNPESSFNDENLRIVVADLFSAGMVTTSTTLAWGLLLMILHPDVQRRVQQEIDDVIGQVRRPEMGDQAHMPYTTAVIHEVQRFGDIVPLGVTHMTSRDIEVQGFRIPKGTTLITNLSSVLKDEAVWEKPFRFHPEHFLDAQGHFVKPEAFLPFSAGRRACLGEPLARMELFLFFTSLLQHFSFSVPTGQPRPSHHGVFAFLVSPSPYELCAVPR
Sequence of CAAX prenyl protease 2 (Q03530 whole entry): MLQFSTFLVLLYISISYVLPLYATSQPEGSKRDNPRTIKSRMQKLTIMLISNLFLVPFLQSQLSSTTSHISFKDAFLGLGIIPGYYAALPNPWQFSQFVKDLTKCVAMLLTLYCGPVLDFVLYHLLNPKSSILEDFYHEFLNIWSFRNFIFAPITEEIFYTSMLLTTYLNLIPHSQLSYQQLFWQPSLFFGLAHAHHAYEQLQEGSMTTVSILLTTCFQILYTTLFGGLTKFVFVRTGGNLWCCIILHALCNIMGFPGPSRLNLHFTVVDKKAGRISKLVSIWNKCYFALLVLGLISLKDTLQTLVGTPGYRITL

Compound: CC1CCN(C(=O)Cn2c3ccccc3c3nc4n(c(=O)c32)CCCS4)CC1
AC50 [1]: 122 µM (active)
AC50 [2]: > 260 µM (inactive)

IC50 [3]: 8.26 µM (active)
IC50 [6]: 49 µM (active)
IC50 [7]: 8.23 µM (active)
IC50 [8]: 9.23 µM (active)
IC50 [9]: 5.3 µM (active)
IC50 [10]: 21 µM (active)
IC50 [11]: 6.2 µM (active)
Compound: C(=C\c1nc(-c2cccnc2)no1)/c1ccccc1
IC50 [4]: 9.69 µM (active)
IC50 [5]: 23 µM (active)

AC50 [12]: 11 µM (active)
AC50 [13]: 11.2 µM (inconclusive)
Compound: Cc1ccc(NC(=O)CCc2ccc(S(=O)(=O)NC3CCCCC3)cc2)cc1

Compound: Cc1nn(C)c(C)c1/N=C/c1c(O)ccc2ccccc12
IC50 [14]: > 66.2 µM (inactive)
IC50 [15]: 3.76 µM (active)
IC50 [16]: 31.2 µM (inactive)
IC50 [17]: > 88.8 µM (inactive)
IC50 [18]: > 49.8 µM (inactive)
IC50 [19]: > 50 µM (inactive)
